Source: patent publication US20180354909A1, “SUBSTITUTED BENZIMIDAZOLIUM, PYRIDO-IMIDAZOLIUM, OR PYRAZINO-IMIDAZOLIUM COMPOUNDS AS CHEMOTHERAPEUTICS” (The Board of Regents of the University of Texas System, priority 2015, published 2018)
pEC50: −log10 of the molar value.

Tested on: Mut6
Experiment: Cytotox testing (CellTiter-Glo ATP assay) in Mut6 cells
Type: cell-based, mouse
Settings: Mus musculus, 96 h, Mut6 cells, 4 days, CellTiter-Glo; read-out: Activity in Mut6 [EC50]
Method: Mut6 tumor cells were cultured in DMEM/F12 media supplemented by EGF (10 ng/mL), basic FGF (10 ng/mL), heparin (4 ug/mL), glucose (total 21 mM), NaHCO3 (113 μg/mL), Hepes (119 μg/mL), glutamine (2 mM), sodium pyruvate (1 mM), N2 supplement (ThermoFisher Gibco 17502-048, 100×, at 100-fold dilution), B27 supplement (ThermoFisher Gibco 12587-010, 50×, at 100-fold dilution), and penicillin/streptomycin (ThermoFisher, final 1%). Cells were maintained in Ultra-low attachment plate (Corning) as sphere-forming cells. For ATP assays and protein/RNA isolation, cells were plated into 96-well plates or 6-well plated that were coated with poly-lysine (Sigma P6407, 10 μg/mL in PBS, 4 hr at 37° C.) and laminin (ThermoFisher 23017015, ˜5 mg/L in PBS, overnight at 37° C.). MEFs and Astrocytes were cultured in DMEM supplemented with 10% FBS and 1% Penicillin/Streptomycin.
2,000 cells were plated into each well of 96-well plates. About 3 hours later, cells were treated by 12M11, at 800-fold dilution (4 mM stock was diluted into 5 μM final concentration). […] CellTiter-Glo assay (Promega) was performed according to manufacturer's instructions, by adding 20 μL of reagent into each well. Luminescence signal was detected by the PolarStar plate reader (BMG Labtech). Experiments were performed in quadruplicate, and results are presented with mean average −/+ standard deviation. EC505 were calculated by GraphPad Prism6 software.
The compounds described herein were tested using a cell-based cytotoxicity assay against neuronal stem cells in Mut6, which is a mouse glioblastoma model cell line.

Row | SMILES | pEC50
1 | CC(C)[C@@H]1CC[C@@H](C)CC1OC(=O)Cn1c(-c2ccc(OC(=O)CCCCC3SC[C@H]4NC(=O)N[C@@H]34)cc2)[n+](C)c2ccccc21 (some centres unmarked) | 5.30 to 6.00
2 | C#CCOc1ccc(-c2n(CC(=O)OC3C[C@H](C)CC[C@H]3C(C)C)c3ccccc3[n+]2C)cc1N=[N+]=[N-] (some centres unmarked) | 6.00 to 7.00
3 | C#CCN(CC(=O)Oc1ccc(-c2n(CC(=O)OC3C[C@H](C)CC[C@H]3C(C)C)c3ccccc3[n+]2C)cc1)Cc1ccc(C2(C(F)(F)F)N=N2)cc1 (some centres unmarked) | 5.30 to 6.00
4 | CCc1n(CC(=O)OC2C[C@H](C)CC[C@H]2C(C)C)c2ccccc2[n+]1C (some centres unmarked) | > 7.00
5 | CCc1n([C@H](C)C(=O)OC2C[C@H](C)CC[C@H]2C(C)C)c2ccccc2[n+]1C (some centres unmarked) | > 7.00
6 | CCc1n([C@@H](C)C(=O)OC2C[C@H](C)CC[C@H]2C(C)C)c2ccccc2[n+]1C (some centres unmarked) | > 7.00
7 | CCc1n([C@H](C)C(=O)OC2C[C@@H](C)CC[C@@H]2C(C)C)c2ccccc2[n+]1C (some centres unmarked) | > 7.00
8 | CCc1n([C@@H](C(=O)OC2C[C@H](C)CC[C@H]2C(C)C)C(C)(C)C)c2ccccc2[n+]1C (some centres unmarked) | 6.00 to 7.00
9 | CCc1n([C@@H](C(=O)OC2C[C@H](C)CC[C@H]2C(C)C)C2CC2)c2ccccc2[n+]1C (some centres unmarked) | > 7.00
10 | CCc1n([C@@H](C(=O)OC2C[C@H](C)CC[C@H]2C(C)C)C2CCCC2)c2ccccc2[n+]1C (some centres unmarked) | > 7.00
11 | CCc1n([C@H](Cc2ccccc2)C(=O)OC2C[C@H](C)CC[C@H]2C(C)C)c2ccccc2[n+]1C (some centres unmarked) | 6.00 to 7.00
12 | CCc1n([C@H](Cc2ccc(C)cc2)C(=O)OC2C[C@H](C)CC[C@H]2C(C)C)c2ccccc2[n+]1C (some centres unmarked) | > 7.00
13 | CCc1n([C@H](Cc2ccc(O)cc2)C(=O)OC2C[C@H](C)CC[C@H]2C(C)C)c2ccccc2[n+]1C (some centres unmarked) | 5.30 to 6.00
14 | COc1ccc(-c2n([C@H](C)C(=O)OC3C[C@H](C)CC[C@H]3C(C)C)c3ccccc3[n+]2C)cc1 (some centres unmarked) | > 7.00
15 | CC(C)[C@@H]1CC[C@@H](C)CC1OC(=O)[C@@H](C)n1c(-c2ccc(N(C)C)cc2)[n+](C)c2ccccc21 (some centres unmarked) | > 7.00
16 | CC(C)[C@@H]1CC[C@@H](C)CC1OC(=O)[C@@H](C)n1c(-c2ccc(C(F)(F)F)cc2)[n+](C)c2ccccc21 (some centres unmarked) | 6.00 to 7.00

Row | SMILES | pEC50
17 | COc1ccc(-c2n([C@@H](C(=O)OC3C[C@H](C)CC[C@H]3C(C)C)C3CC3)c3ccccc3[n+]2C)cc1 (some centres unmarked) | > 7.00
18 | CC(C)[C@@H]1CC[C@@H](C)CC1OC(=O)[C@@H](C1CC1)n1c(-c2ccc(N(C)C)cc2)[n+](C)c2ccccc21 (some centres unmarked) | > 7.00
19 | CC(C)[C@@H]1CC[C@@H](C)CC1OC(=O)[C@@H](C1CC1)n1c(-c2ccc(C(F)(F)F)cc2)[n+](C)c2ccccc21 (some centres unmarked) | 6.00 to 7.00
20 | CCc1n(CC(=O)OC2C[C@H](C)CC[C@H]2C(C)C)c2ccc(Br)cc2[n+]1C (some centres unmarked) | 6.00 to 7.00
21 | CCc1n(CC(=O)OC2C[C@H](C)CC[C@H]2C(C)C)c2cc(Br)ccc2[n+]1C (some centres unmarked) | 6.00 to 7.00
22 | CCc1n(CC(=O)OC2C[C@H](C)CC[C@H]2C(C)C)c2ccc(Cl)cc2[n+]1C (some centres unmarked) | 6.00 to 7.00
23 | CCc1n(CC(=O)OC2C[C@H](C)CC[C@H]2C(C)C)c2cc(Cl)ccc2[n+]1C (some centres unmarked) | 6.00 to 7.00
24 | CCc1n(CC(=O)OC2C[C@H](C)CC[C@H]2C(C)C)c2ccc(F)cc2[n+]1C (some centres unmarked) | 6.00 to 7.00
25 | CCc1n(CC(=O)OC2C[C@H](C)CC[C@H]2C(C)C)c2cc(F)ccc2[n+]1C (some centres unmarked) | > 7.00
26 | CCc1n(CC(=O)OC2C[C@H](C)CC[C@H]2C(C)C)c2ccc(C(F)(F)F)cc2[n+]1C (some centres unmarked) | 5.30 to 6.00
27 | CCc1n(CC(=O)OC2C[C@H](C)CC[C@H]2C(C)C)c2cc(C(F)(F)F)ccc2[n+]1C (some centres unmarked) | 5.30 to 6.00
28 | CCc1n(CC(=O)OC2C[C@H](C)CC[C@H]2C(C)C)c2ccc(C#N)cc2[n+]1C (some centres unmarked) | 5.30 to 6.00
29 | CCc1n(CC(=O)OC2C[C@H](C)CC[C@H]2C(C)C)c2cc(C#N)ccc2[n+]1C (some centres unmarked) | 5.30 to 6.00
30 | CCc1n(CC(=O)OC2C[C@H](C)CC[C@H]2C(C)C)c2ccc([N+](=O)[O-])cc2[n+]1C (some centres unmarked) | 5.30 to 6.00
31 | CCc1n(CC(=O)OC2C[C@H](C)CC[C@H]2C(C)C)c2cc([N+](=O)[O-])ccc2[n+]1C (some centres unmarked) | 5.30 to 6.00
32 | CCN(CC)c1ccc(-c2n([C@H](C)C(=O)OC3C[C@H](C)CC[C@H]3C(C)C)c3ccccc3[n+]2C)cc1 (some centres unmarked) | > 7.00
